Data as given in patent publication US20210023029A1, “EDASALONEXENT DOSING REGIMEN FOR TREATING MUSCULAR DYSTROPHY” (Catabasis Pharmaceuticals, Inc., priority 2017, published 2021).
Entries after “also recorded” stand apart in the source; their conditions may differ. Like-named read-outs stand apart in the source and are kept apart here.

Tests used:
[1] = tested on: mdx mice; test: Quadriceps muscle inflammation and fibrosis in young mdx mice treated four weeks (H&E and picrosirius red staining); assay type: in vivo
Description: Young mdx mice were treated for four weeks with varying dosing regimens of edasalonexent. The mdx mouse is a useful and generally accepted animal model for studying Duchenne muscular dystrophy (DMD) (Mann et al. (2001) PROC. NATL. ACAD. SCI. 98(1):42-7). mdx mice are deficient in expression of full-length dystrophin due to a genetic mutation within the dystrophin gene.
Mice were administered edasalonexent in their diet, and/or by oral gavage. Specifically, mice were administered 1% edasalonexent in their diet, 450 mg/kg/day delivered orally as single daily dose, 450 mg/kg/day delivered orally as three equally divided doses, and/or 600 mg/kg/day delivered orally as two 150 mg/kg/doses and one 300 mg/kg/dose. For dosing regimens with three daily doses, doses were delivered at 7:00 am, noon and 5:00 pm.
The dosing regimens for each treatment group are depicted in TABLE 4. Each treatment group included 10-11 mice.
Animals were treated for four weeks, sacrificed, and tissues were collected for histological analysis. For assessment of inflammation and fibrosis, quadriceps muscles were processed for hematoxylin and eosin (H&E) and picrosirius red (collagen) histochemical staining. From each animal, 2-4 complete transverse sections were digitally analyzed using ImageJ, with the hematoxylin-stained nuclear area determined as a measure of inflammatory infiltration, and the picrosirius red-stained area determined as a measure of fibrosis.

[2] = Edasalonexent dosing regimen pharmacokinetics in C57BL/6 mice (diet or oral gavage, LC/MS/MS); assay type: in vivo; conditions: for AUC / Cmax / Tmax / AUC(0-t): C57BL/6, mouse; for AUC(0-t): read-out: AUC0-24 h, day 3 (±SE)
Description: C57BL/6 mice were administered edasalonexent in their diet and/or by oral gavage. Pharmacokinetic (PK) modeling was used to identify suitable dosing amounts and timing in relation to the doses of 67 mg/kg/day and 100 mg/kg/day that have been tested in edasalonexent human clinical trials. Specifically, mice were administered 1.5% edasalonexent in their diet, 450 mg/kg/day delivered orally as single daily dose, 450 mg/kg/day delivered orally as three equally divided doses, or 600 mg/kg/day delivered orally as two 150 mg/kg/doses and one 300 mg/kg/dose. For dosing regimens with three daily doses, doses were delivered at 7:00 am, noon and 5:00 pm.
The dosing regimens for each group are depicted in TABLE 1. Each group included 12 mice.
For animals administered edasalonexent in their diet, edasalonexent concentration was measured by LC/MS/MS every 4 hours for 24 hours, beginning on the seventh day of dosing. For animals administered edasalonexent orally, edasalonexent concentration was measured by LC/MS/MS at 0.25, 0.5, 1, 2, 4, 6 and 24 hours after dosing, beginning on the third day of dosing.

[3] = tested on: NF-κB regulated and inflammation-related gene transcripts; test: MoveDMD trial: NF-κB regulated and inflammation-related gene transcripts in whole blood (RNA sequencing); assay type: in vivo, human; conditions: one week treatment
Description: To determine the effects of a given edasalonexent dosing regimen on NF-κB inhibition, the expression levels of a number of NF-κB regulated and inflammation-related gene transcripts were measured in whole blood samples from DMD patients.
NF-kB regulated and inflammation-related genes were chosen from the Broad Institute's HALLMARK TNF/NF-kB gene set (Liberzon, et. al., (2015), Cell Systems, 1(6):417-425). Blood was drawn from DMD boys before and one-week after edasalonexent treatment, and collected into PAXgene RNA tubes (Qiagen). RNA was extracted and sequenced to directly measure the abundance of transcripts in whole blood for both time points in each patient, and the abundance of transcripts one-week post treatment was compared to pre-treatment values to determine the relative change in each of the selected transcripts. This ratio for each gene across all patients within a dose cohort was averaged and is shown in FIG. 12 by columns as average +/−SEM. A value less than 1 indicates a decrease in the transcripts after one-week treatment with edasalonexent.

[4] = tested on: NF-κB; conditions: cited from earlier work
[5] = group 2, 1% edasalonexent in diet
[6] = group 4, oral QD 450 mg/kg/dose
[7] = group 7, oral TID 150/150/300 mg/kg/dose = 600 mg/kg/day
[8] = gastrocnemius, 1.5% edasalonexent in diet (group 1)

AUC ([2]; po, 1.5 % in diet, gastrocnemius, 1.5% edasalonexent in diet (group 1)): 7620 ng·h/mL
Cmax ([2]; po, 1.5 % in diet, gastrocnemius, 1.5% edasalonexent in diet (group 1), read-out: Cmax): 532 ng/mL
AUC ([2]; po, 1.5 % in diet, plasma, 1.5% edasalonexent in diet (group 1)): 524 ng·h/mL
Cmax ([2]; po, 1.5 % in diet, plasma, 1.5% edasalonexent in diet (group 1), read-out: Cmax): 44.6 ng/mL
Tmax ([2]; plasma, group 2, oral QD 450 mg/kg/dose, day 3): 30 min
Cmax ([2]; plasma, group 2, oral QD 450 mg/kg/dose, day 3, read-out: Cmax (±SE)): 604 ± 83.3 ng/mL
AUC(0-t) ([2]; plasma, group 2, oral QD 450 mg/kg/dose): 1320 ng·h/mL
Tmax ([2]; plasma, group 3, oral TID 150 mg/kg/dose = 450 mg/kg/day, day 3): 30 min
Cmax ([2]; plasma, group 3, oral TID 150 mg/kg/dose = 450 mg/kg/day, day 3, read-out: Cmax (±SE)): 452 ± 47.6 ng/mL
AUC(0-t) ([2]; plasma, group 3, oral TID 150 mg/kg/dose = 450 mg/kg/day): 1360 ± 211 ng·h/mL
Tmax ([2]; plasma, group 4, oral TID 150/150/300 mg/kg/dose = 600 mg/kg/day, day 3): 30 min
Cmax ([2]; plasma, group 4, oral TID 150/150/300 mg/kg/dose = 600 mg/kg/day, day 3, read-out: Cmax (±SE)): 278 ± 46.3 ng/mL
AUC(0-t) ([2]; plasma, group 4, oral TID 150/150/300 mg/kg/dose = 600 mg/kg/day): 2270 ± 587 ng·h/mL
Cmean [2, 8]: 332.8 ng/mL
Cmin [2, 8]: 149.4 ng/mL
AUC of single daily 450 mg/kg dose relative to edasalonexent in diet ([2]; group 2 (450 mg/kg QD) versus group 1 (1.5% in diet), plasma): ~2.5 fold
Cmin ([2]; plasma, 1.5% edasalonexent in diet (group 1)): 10.7 ng/mL
Cmean ([2]; plasma, 1.5% edasalonexent in diet (group 1), from seventh day of dosing): 22.4 ng/mL
Structure (SMILES): CC/C=C\C/C=C\C/C=C\C/C=C\C/C=C\C/C=C\CCC(=O)NCCNC(=O)c1ccccc1O [edasalonexent, N-(2-[(4Z,7Z,10Z,13Z,16Z,19Z)-docosa-4,7,10,13,16,19-hexaenamido]ethyl)-2-hydroxybenzamide]
quadriceps muscle fibrosis (picrosirius red-stained area) [1, 5]: reduced
quadriceps muscle inflammation (hematoxylin-stained nuclear area) [1, 5]: reduced
quadriceps muscle fibrosis (picrosirius red-stained area) [1, 6]: did not cause a significant reduction
quadriceps muscle inflammation (hematoxylin-stained nuclear area) [1, 6]: did not cause a significant reduction
quadriceps muscle fibrosis (picrosirius red-stained area) [1, 7]: further drove efficacy
quadriceps muscle inflammation (hematoxylin-stained nuclear area) [1, 7]: further drove efficacy
change in 24 NF-κB regulated and inflammation-related gene transcripts, Day 7 versus Day 1 ([3]; 33 mg/kg/day): decreases were generally not noted
change in 24 NF-κB regulated and inflammation-related gene transcripts, Day 7 versus Day 1 ([3]; 67 mg/kg/day): not so pronounced
change in 24 NF-κB regulated and inflammation-related gene transcripts, Day 7 versus Day 1 ([3]; 100 mg/kg/day): statistically significant decrease in all 24 transcripts; also recorded: most effective
expression of NF-κB driven genes in whole blood ([4]; adult study, dose of approximately 100 mg/kg/day): changes in expression of NF-κB driven genes were observed
levels of the p65 subunit of NF-κB ([4]; healthy adult humans, compared to placebo or salicylate and omega-3 DHA as separate molecules): lowers levels of the p65 subunit of NF-κB
biomarkers of inflammation in whole blood ([4]; humans): decrease of biomarkers of inflammation
activated NF-κB pathways ([4]; phase 1 clinical program in adults (Donovan et al. 2017)): inhibited activated NF-κB pathways
safety and tolerability ([4]; phase 1 clinical program, three placebo-controlled studies in adults (Donovan et al. 2017)): safe and well-tolerated
